Test results from ChEMBL document CHEMBL6074678, “Selectively Antagonizing the NOD1-Mediated Inflammatory Signaling Pathway Mitigates the Gastric Inflammation Induced by Helicobacter pylori Infection” (J Med Chem, 2024).
Activity calls are given as the source filed them. The rule behind the calls is not given here.

What was measured:
[1] = Half life in C57BL/6 mouse at 20 mg/kg, po by LC-MS/MS analysis; format: ADME, organism-based; details: in vivo
[2] = molecular target: T1, Nucleotide-binding oligomerization domain-containing protein 1 (Homo sapiens) (UniProt Q9Y239); assay: Thermal stabilization of NOD1 (unknown origin) transfected in HEK293 cells at 0.1 to 5 uM incubated for 1 hr heated at higher temperature by CETSA; format: cell-based; details: dose 0.1-5 µM
T1 sequence (whole entry): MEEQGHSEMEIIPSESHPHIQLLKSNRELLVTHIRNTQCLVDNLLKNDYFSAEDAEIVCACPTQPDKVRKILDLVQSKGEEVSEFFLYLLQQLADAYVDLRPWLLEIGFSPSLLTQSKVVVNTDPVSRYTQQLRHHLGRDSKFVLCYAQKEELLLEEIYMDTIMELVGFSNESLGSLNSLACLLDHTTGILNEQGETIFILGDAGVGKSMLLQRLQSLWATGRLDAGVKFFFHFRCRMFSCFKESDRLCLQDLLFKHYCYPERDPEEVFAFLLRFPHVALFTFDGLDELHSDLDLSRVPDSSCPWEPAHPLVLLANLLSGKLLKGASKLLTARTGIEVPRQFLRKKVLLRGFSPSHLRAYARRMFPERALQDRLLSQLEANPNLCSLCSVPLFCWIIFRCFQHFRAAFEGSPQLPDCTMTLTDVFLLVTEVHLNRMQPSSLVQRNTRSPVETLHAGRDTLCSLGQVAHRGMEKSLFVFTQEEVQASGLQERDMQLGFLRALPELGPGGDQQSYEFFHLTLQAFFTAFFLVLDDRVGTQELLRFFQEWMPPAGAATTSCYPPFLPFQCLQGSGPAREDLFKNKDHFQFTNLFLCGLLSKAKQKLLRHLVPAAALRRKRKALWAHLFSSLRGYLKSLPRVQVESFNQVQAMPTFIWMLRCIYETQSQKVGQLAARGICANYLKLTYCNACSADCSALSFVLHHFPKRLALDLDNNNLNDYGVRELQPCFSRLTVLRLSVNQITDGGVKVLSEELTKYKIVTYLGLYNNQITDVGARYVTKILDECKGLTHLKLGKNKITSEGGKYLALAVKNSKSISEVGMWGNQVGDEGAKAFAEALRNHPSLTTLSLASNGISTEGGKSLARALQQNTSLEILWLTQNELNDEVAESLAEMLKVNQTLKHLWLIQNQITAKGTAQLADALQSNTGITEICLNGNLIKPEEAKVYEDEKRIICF

[3] = molecular target: T2, Nucleotide-binding oligomerization domain-containing protein 1 (Mus musculus) (UniProt Q8BHB0); assay: Antagonist activity at NOD1 in mouse BMDM cells assessed as decrease in phosphorylated JNK level at 0.1 to 1 uM incubated for 1 hr followed by C12-iE-DAP stimulation for 30 mins by Western blot analysis; format: cell-based; details: filed as antagonist, dose 0.1-1 µM, time 1.5 hrs
T2 sequence (whole entry): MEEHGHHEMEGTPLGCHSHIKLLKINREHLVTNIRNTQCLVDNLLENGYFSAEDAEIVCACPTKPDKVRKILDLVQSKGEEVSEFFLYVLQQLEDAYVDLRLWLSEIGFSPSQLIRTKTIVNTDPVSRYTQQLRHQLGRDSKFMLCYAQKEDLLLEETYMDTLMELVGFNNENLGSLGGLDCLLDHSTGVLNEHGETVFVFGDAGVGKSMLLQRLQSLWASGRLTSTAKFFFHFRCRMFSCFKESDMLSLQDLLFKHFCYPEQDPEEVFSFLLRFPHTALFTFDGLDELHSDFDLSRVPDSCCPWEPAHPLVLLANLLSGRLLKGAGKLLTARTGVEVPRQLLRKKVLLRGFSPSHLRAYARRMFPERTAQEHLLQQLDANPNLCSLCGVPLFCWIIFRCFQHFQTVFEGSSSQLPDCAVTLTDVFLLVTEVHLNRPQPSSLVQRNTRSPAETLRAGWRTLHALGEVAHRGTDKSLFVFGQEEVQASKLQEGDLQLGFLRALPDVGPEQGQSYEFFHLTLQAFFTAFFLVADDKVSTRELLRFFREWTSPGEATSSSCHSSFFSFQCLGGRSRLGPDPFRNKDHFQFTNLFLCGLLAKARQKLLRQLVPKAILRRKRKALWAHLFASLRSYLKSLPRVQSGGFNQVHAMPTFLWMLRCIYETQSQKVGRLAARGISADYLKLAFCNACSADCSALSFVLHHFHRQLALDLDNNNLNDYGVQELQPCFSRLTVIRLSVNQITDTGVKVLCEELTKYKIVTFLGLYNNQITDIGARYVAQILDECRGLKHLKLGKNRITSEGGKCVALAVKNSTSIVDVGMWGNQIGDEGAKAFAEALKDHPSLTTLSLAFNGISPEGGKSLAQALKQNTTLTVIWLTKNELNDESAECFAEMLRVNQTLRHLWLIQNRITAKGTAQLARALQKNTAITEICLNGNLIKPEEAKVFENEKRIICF

[4] = Cytotoxicity against HEK-Blue hNOD1 cells by SRB assay; format: toxicity, cell-based; details: human
[5] = Anti-inflammatory activity in mouse BMDM cells assessed as decrease in IL-6 mRNA level at 0.1 uM pretreated for 1 hr followed by C12-iE-DAP stimulation for 2 hrs by RT-qPCR analysis relative to control; format: functional; design: scale not given: the % may be the effect or the level left; details: time 3 hrs
[6] = molecular target: T3, Nucleotide-binding oligomerization domain-containing protein 1 (Homo sapiens, UniProt Q9Y239); assay: Antagonist activity at human NOD1 expressed in HEK293 cells assessed as decrease in NF-kappaB activation; format: cell-based
T3 sequence (Q9Y239 whole entry): T1 sequence (whole entry)

[7] = molecular target: T4, Nucleotide-binding oligomerization domain-containing protein 1 (Mus musculus, UniProt Q8BHB0); assay: Antagonist activity at mouse NOD1 expressed in HEK293 cells assessed as decrease in NF-kappaB activation; format: cell-based
T4 sequence (Q8BHB0 whole entry): T2 sequence (whole entry)

THP-1 = assay: Anti-inflammatory activity in human THP-1 cells assessed as decrease in IL-6 mRNA level at 0.1 uM pretreated for 1 hr followed by C12-iE-DAP stimulation for 2 hrs by RT-qPCR analysis relative to control; format: functional; design: scale not given: the % may be the effect or the level left; details: time 3 hrs
[8] = molecular target: T2, Nucleotide-binding oligomerization domain-containing protein 1 (Mus musculus); assay: Antagonist activity at NOD1 in mouse BMDM cells assessed as decrease in phosphorylated p38 level at 0.1 to 1 uM incubated for 1 hr followed by C12-iE-DAP stimulation for 30 mins by Western blot analysis; format: cell-based; details: filed as antagonist, dose 0.1-1 µM, time 1.5 hrs
[9] = Cmax in C57BL/6 mouse at 20 mg/kg, po by LC-MS/MS analysis; format: ADME, organism-based; details: in vivo
Mus musculus = assay: Anti-inflammatory activity in C57BL/6 mouse assessed as inhibition in serum keratinocyte chemoattractant level at 12.5 to 50 mg/kg, po pretreated with compound for 15 mins followed by C12-iE-DAP administration measured after 2 hrs by ELISA relative to control; format: functional; details: dose 12.5-50 mg/kg, time 135 min, 2.25 h
[10] = molecular target: T2, Nucleotide-binding oligomerization domain-containing protein 1 (Mus musculus); assay: Antagonist activity at mouse NOD1 expressed in HEK-Blue cells assessed as decrease in SEAP secretion incubated for 3 hrs followed by C12-iE-DAP stimulation for 20 hrs by spectrophotometry; format: cell-based; details: HEK-Blue mNOD1, filed as antagonist, time 23.0 hrs

half-life [1]: 3.15 h | Activity [2]: Active | inhibition [3]: Active | IC50 [6]: 0.8 nM | IC50 [7]: 32 nM | inhibition [8]: Active | Cmax [9]: 44.6 ng/mL | Activity [10]: Dose-dependent-effect
SMILES: CS(=O)(=O)c1ccc2nc(Cl)n(-c3ccc(Cl)c(NS(=O)(=O)c4c(F)cccc4F)c3)c(=O)c2c1
Activity [4]: Non-toxic | Activity [5]: ~100% | Activity (THP-1): ~100% | inhibition (INH) (Mus musculus): ~77%
